In patent US11053204B2, “Pyrimidinyloxy benzene derivatives as herbicides” (FMC Corporation, priority 2015, dated 2021):

Tests used:
Type in all cases: in vivo
[1] = test system: Italian ryegrass (Lolium multiflorum); assay: Test A preemergence, visual injury rating; settings: for Plant response rating, Ryegrass, Italian: 31 g ai/ha, 0 to 100 scale, 0 no effect, 100 complete control; for Ryegrass, Italian plant response rating: 125 g ai/ha, 0 to 100 scale (0 no effect, 100 complete control)
Source text: (§1) Seeds of plant species selected from barnyardgrass (Echinochloa crus-galli), kochia (Kochia scoparia), ragweed (common ragweed, Ambrosia elatior), Italian ryegrass (Lolium multiflorum), large (Lg) crabgrass (Digitaria sanguinalis), giant foxtail (Setaria faberii), morningglory (Ipomoea spp.), pigweed (Amaranthus retroflexus), velvetleaf (Abutilon theophrasti), wheat (Triticum aestivum), and corn (Zea mays) were planted into a blend of loam soil and sand and treated preemergence with a directed soil spray using test chemicals formulated in a non-phytotoxic solvent mixture which included a surfactant.
(§2) At the same time, plants selected from these crop and weed species and also blackgrass (Alopecurus myosuroides), and galium (catchweed bedstraw, Galium aparine) were planted in pots containing the same blend of loam soil and sand and treated with postemergence applications of test chemicals formulated in the same manner. Plants ranged in height from 2 to 10 cm and were in the one- to two-leaf stage for the postemergence treatment. Treated plants and untreated controls were maintained in a greenhouse for approximately 10 days, after which time all treated plants were compared to untreated controls and visually evaluated for injury. Plant response ratings, summarized in Table A, are based on a 0 to 100 scale where 0 is no effect and 100 is complete control. A dash (-) response means no test result.

[2] = test system: barnyardgrass (Echinochloa crus-galli); assay: Test A preemergence, visual injury rating; settings: for Plant response rating, Barnyardgrass: 31 g ai/ha, 0 to 100 scale, 0 no effect, 100 complete control; for Barnyardgrass plant response rating: 125 g ai/ha, 0 to 100 scale (0 no effect, 100 complete control)
Source text: as §1, §2

[3] = test system: giant foxtail (Setaria faberii); assay: Test A preemergence, visual injury rating; settings: for Plant response rating, Foxtail, Giant: 31 g ai/ha, 0 to 100 scale, 0 no effect, 100 complete control; for Foxtail, Giant plant response rating: 125 g ai/ha, 0 to 100 scale (0 no effect, 100 complete control)
Source text: as §1, §2

kochia (Kochia scoparia) [4] = assay: Test A preemergence, visual injury rating; settings: for Plant response rating, Kochia: 31 g ai/ha, 0 to 100 scale, 0 no effect, 100 complete control; for Kochia plant response rating: 125 g ai/ha, 0 to 100 scale (0 no effect, 100 complete control)
Source text: as §1, §2

[5] = test system: pigweed (Amaranthus retroflexus); assay: Test A preemergence, visual injury rating; settings: for Plant response rating, Pigweed: 31 g ai/ha, 0 to 100 scale, 0 no effect, 100 complete control; for Pigweed plant response rating: 125 g ai/ha, 0 to 100 scale (0 no effect, 100 complete control)
Source text: as §1, §2

[6] = test system: ragweed (common ragweed, Ambrosia elatior); assay: Test A preemergence, visual injury rating; settings: for Plant response rating, Ragweed: 31 g ai/ha, 0 to 100 scale, 0 no effect, 100 complete control; for Ragweed plant response rating: 125 g ai/ha, 0 to 100 scale (0 no effect, 100 complete control)
Source text: as §1, §2

[7] = test system: Italian ryegrass (Lolium multiflorum); assay: Test A postemergence, visual injury rating; settings: 0 is no effect, 100 is complete control; for Ryegrass, Italian plant response rating: 31 g ai/ha, 0 to 100 scale, approximately 10 days; for Ryegrass, Italian plant response rating (0 to 100 scale): 125 g ai/ha
Source text: as §1, §2

[8] = test system: barnyardgrass (Echinochloa crus-galli); assay: Test A postemergence, visual injury rating; settings: 0 is no effect, 100 is complete control; for Barnyardgrass plant response rating: 31 g ai/ha, 0 to 100 scale, approximately 10 days; for Barnyardgrass plant response rating (0 to 100 scale): 125 g ai/ha
Source text: as §1, §2

[9] = test system: blackgrass (Alopecurus myosuroides); assay: Test A postemergence, visual injury rating; settings: 0 is no effect, 100 is complete control; for Blackgrass plant response rating: 31 g ai/ha, 0 to 100 scale, approximately 10 days; for Blackgrass plant response rating (0 to 100 scale): 125 g ai/ha
Source text: as §1, §2

corn (Zea mays) = assay: Test A postemergence, visual injury rating; settings: 0 is no effect, 100 is complete control; for Corn plant response rating: 31 g ai/ha, 0 to 100 scale, approximately 10 days; for Corn plant response rating (0 to 100 scale): 125 g ai/ha
Source text: as §1, §2

[10] = test system: galium (catchweed bedstraw, Galium aparine); assay: Test A postemergence, visual injury rating; settings: 0 is no effect, 100 is complete control; for Galium plant response rating: 31 g ai/ha, 0 to 100 scale, approximately 10 days; for Galium plant response rating (0 to 100 scale): 125 g ai/ha
Source text: as §1, §2

[11] = test system: giant foxtail (Setaria faberii); assay: Test A postemergence, visual injury rating; settings: 0 is no effect, 100 is complete control; for Foxtail, Giant plant response rating: 31 g ai/ha, 0 to 100 scale, approximately 10 days; for Foxtail, Giant plant response rating (0 to 100 scale): 125 g ai/ha
Source text: as §1, §2

kochia (Kochia scoparia) [12] = assay: Test A postemergence, visual injury rating; settings: 0 is no effect, 100 is complete control; for Kochia plant response rating: 31 g ai/ha, 0 to 100 scale, approximately 10 days; for Kochia plant response rating (0 to 100 scale): 125 g ai/ha
Source text: as §1, §2

[13] = test system: pigweed (Amaranthus retroflexus); assay: Test A postemergence, visual injury rating; settings: 0 is no effect, 100 is complete control; for Pigweed plant response rating: 31 g ai/ha, 0 to 100 scale, approximately 10 days; for Pigweed plant response rating (0 to 100 scale): 125 g ai/ha
Source text: as §1, §2

[14] = test system: ragweed (common ragweed, Ambrosia elatior); assay: Test A postemergence, visual injury rating; settings: 0 is no effect, 100 is complete control; for Ragweed plant response rating: 31 g ai/ha, 0 to 100 scale, approximately 10 days; for Ragweed plant response rating (0 to 100 scale): 125 g ai/ha
Source text: as §1, §2

[15] = test system: wheat (Triticum aestivum); assay: Test A postemergence, visual injury rating; settings: 0 is no effect, 100 is complete control; for Wheat plant response rating: 31 g ai/ha, 0 to 100 scale, approximately 10 days; for Wheat plant response rating (0 to 100 scale): 125 g ai/ha
Source text: as §1, §2

[16] = test system: barnyardgrass (Echinochloa crus-galli); assay: Test B flooded paddy test, plant response rating; settings: 250 g ai/ha; Flood; scale of 0 to 100 where 0 is no effect and 100 is complete control; 13 to 15 days
Source text: (§3) At time of treatment, test pots were flooded to 3 cm above the soil surface, treated by application of test compounds directly to the paddy water, and then maintained at that water depth for the duration of the test. Treated plants and controls were maintained in a greenhouse for 13 to 15 days, after which time all species were compared to controls and visually evaluated. […] A dash (-) response means no test result.

[17] = test system: ducksalad (Heteranthera limosa); assay: Test B flooded paddy test, plant response rating; settings: 250 g ai/ha; Flood; scale of 0 to 100 where 0 is no effect and 100 is complete control; 13 to 15 days
Source text: as §3

rice (Oryza sativa) = assay: Test B flooded paddy test, plant response rating; settings: 250 g ai/ha; Flood; scale of 0 to 100 where 0 is no effect and 100 is complete control; 13 to 15 days
Source text: as §3

[18] = test system: sedge, umbrella (small-flower umbrella sedge, Cyperus difformis); assay: Test B flooded paddy test, plant response rating; settings: 250 g ai/ha; Flood; scale of 0 to 100 where 0 is no effect and 100 is complete control; 13 to 15 days
Source text: as §3

With `CC(C)COC(=O)c1c(Br)cccc1Oc1ncc(Cl)cn1` [Compound 1] the “Plant response rating, Ryegrass, Italian” value [1] was 0, the “Ryegrass, Italian plant response rating” value [1] was 0 and the “Plant response rating, Barnyardgrass” value [2] was 20. For the same compound, the “Barnyardgrass plant response rating” value [2] was 30, the “Plant response rating, Foxtail, Giant” value [3] was 30 and the “Foxtail, Giant plant response rating” value [3] was 70. For the same compound, the “Plant response rating, Kochia” value (kochia (Kochia scoparia) [4]) was 0, the “Kochia plant response rating” value (kochia (Kochia scoparia) [4]) was 40 and the “Plant response rating, Pigweed” value [5] was 20. The “Pigweed plant response rating” value [5] was 70, the “Plant response rating, Ragweed” value [6] was 0 and the “Ragweed plant response rating” value [6] was 0. For the same compound, the “Ryegrass, Italian plant response rating” value [7] was 0, the “Ryegrass, Italian plant response rating (0 to 100 scale)” value [7] was 0 and the “Barnyardgrass plant response rating” value [8] was 20. The “Barnyardgrass plant response rating (0 to 100 scale)” value [8] was 30, the “Blackgrass plant response rating” value [9] was 0 and the “Blackgrass plant response rating (0 to 100 scale)” value [9] was 20. The “Corn plant response rating” value (corn (Zea mays)) was 0, the “Corn plant response rating (0 to 100 scale)” value (corn (Zea mays)) was 20 and the “Galium plant response rating” value [10] was 50. The “Galium plant response rating (0 to 100 scale)” value [10] was 70, the “Foxtail, Giant plant response rating” value [11] was 30 and the “Foxtail, Giant plant response rating (0 to 100 scale)” value [11] was 60. For the same compound, the “Kochia plant response rating” value (kochia (Kochia scoparia) [12]) was 20, the “Kochia plant response rating (0 to 100 scale)” value (kochia (Kochia scoparia) [12]) was 30 and the “Pigweed plant response rating” value [13] was 40. The “Pigweed plant response rating (0 to 100 scale)” value [13] was 70, the “Ragweed plant response rating” value [14] was 0 and the “Ragweed plant response rating (0 to 100 scale)” value [14] was 10. For the same compound, the “Wheat plant response rating” value [15] was 0, the “Wheat plant response rating (0 to 100 scale)” value [15] was 0 and the “Plant response rating, Barnyardgrass” value [16] was 0. For the same compound, the “Plant response rating, Ducksalad” value [17] was 20, the “Plant response rating, Rice” value (rice (Oryza sativa)) was 0 and the “Plant response rating, Sedge, Umbrella” value [18] was 80.

For `C=C(Cl)COC(=O)c1c(Br)cccc1Oc1ncc(Cl)cn1` [Compound 2], the “Plant response rating, Ryegrass, Italian” value [1] was 0, the “Ryegrass, Italian plant response rating” value [1] was 10 and the “Plant response rating, Barnyardgrass” value [2] was 10. For the same compound, the “Barnyardgrass plant response rating” value [2] was 50, the “Plant response rating, Foxtail, Giant” value [3] was 70 and the “Foxtail, Giant plant response rating” value [3] was 100. The “Plant response rating, Kochia” value (kochia (Kochia scoparia) [4]) was 30, the “Kochia plant response rating” value (kochia (Kochia scoparia) [4]) was 70 and the “Plant response rating, Pigweed” value [5] was 40. The “Pigweed plant response rating” value [5] was 90, the “Plant response rating, Ragweed” value [6] was 0 and the “Ragweed plant response rating” value [6] was 0. The “Ryegrass, Italian plant response rating” value [7] was 0, the “Ryegrass, Italian plant response rating (0 to 100 scale)” value [7] was 20 and the “Barnyardgrass plant response rating” value [8] was 30. For the same compound, the “Barnyardgrass plant response rating (0 to 100 scale)” value [8] was 40, the “Blackgrass plant response rating” value [9] was 0 and the “Blackgrass plant response rating (0 to 100 scale)” value [9] was 30. The “Corn plant response rating” value (corn (Zea mays)) was 10, the “Corn plant response rating (0 to 100 scale)” value (corn (Zea mays)) was 20 and the “Galium plant response rating” value [10] was 60. For the same compound, the “Galium plant response rating (0 to 100 scale)” value [10] was 90, the “Foxtail, Giant plant response rating” value [11] was 30 and the “Foxtail, Giant plant response rating (0 to 100 scale)” value [11] was 60. The “Kochia plant response rating” value (kochia (Kochia scoparia) [12]) was 50, the “Kochia plant response rating (0 to 100 scale)” value (kochia (Kochia scoparia) [12]) was 90 and the “Pigweed plant response rating” value [13] was 60. For the same compound, the “Pigweed plant response rating (0 to 100 scale)” value [13] was 80, the “Ragweed plant response rating” value [14] was 0 and the “Ragweed plant response rating (0 to 100 scale)” value [14] was 0. For the same compound, the “Wheat plant response rating” value [15] was 0, the “Wheat plant response rating (0 to 100 scale)” value [15] was 0 and the “Plant response rating, Barnyardgrass” value [16] was 0. The “Plant response rating, Ducksalad” value [17] was 30, the “Plant response rating, Rice” value (rice (Oryza sativa)) was 0 and the “Plant response rating, Sedge, Umbrella” value [18] was 100.
